The source of these data is patent US20240317721A1, “PYRAZOLYL DERIVATIVES AS INHIBITORS OF THE KRAS MUTANT PROTEIN” (NOVARTIS AG, priority 2021, published 2024).

One may read the IC50 as the concentration that gives 50% inhibition.

The experiment concerns the target KRasG12C (M1-K169, biotinylated on the N-terminus) (Homo sapiens (Human), UniProt P01116, G12C). Kind of experiment: Covalent competition assay: scintillation proximity assay (SPA) quantifying covalent modification of KRASG12C. The conditions noted are these: competition with radiolabeled covalent probe (Compound B/Compound A), 2 hours incubation, 10 nM KRasG12C. It counts as binding. In a few lines: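 Scintillation proximity readout after streptavidin bead capture (30 min) of biotinylated KRasG12C(M1-K169):GDP, 10 nM final, which was covalently labelled over 2 h by 25 nM radio-probe plus 475 nM cold probe unless blocked by compound.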
Regarding `C=CC(=O)N1CC2(CC(n3nc(N4CCC(N(C)C5COC5)CC45CCC5)c(-c4c(Cl)c(C)cc5[nH]ncc45)c3C)C2)C1` (single isomer, unassigned) [Example 51a, 1-(6-(4-(5-chloro-6-methyl-1H-indazol-4-yl)-5-methyl-3-(8-(methyl(oxetan-3-yl)amino)-5-azaspiro[3.5]nonan-5-yl)-1H-pyrazol-1-yl)-2-azaspiro[3.3]heptan-2-yl)prop-2-en-1-one], the IC50 is 10 nM.

For `C=CC(=O)N1CC2(CC(n3nc(N4CCN(C(C)=O)CC4)c(-c4c(Cl)ccc5[nH]ncc45)c3C)C2)C1C` (single isomer, unassigned) [Example 195b, 1-(6-(3-(4-Acetylpiperazin-1-yl)-4-(5-chloro-1H-indazol-4-yl)-5-methyl-1H-pyrazol-1-yl)-1-methyl-2-azaspiro[3.3]heptan-2-yl)prop-2-en-1-one], the IC50 is more than 50000 nM. Then `C=CC(=O)N1CC2(CC(n3nc(N4CCN(C5COC5)CC45CCC5)c(-c4c(Cl)c(C)cc5[nH]ncc45)c3C)C2)C1` (single isomer, unassigned) [Example 54b, 1-(6-(4-(5-Chloro-6-methyl-1H-indazol-4-yl)-5-methyl-3-(8-(oxetan-3-yl)-5,8-diazaspiro[3.5]nonan-5-yl)-1H-pyrazol-1-yl)-2-azaspiro[3.3]heptan-2-yl)prop-2-en-1-one], with 15 nM. Next, `C=CC(=O)N1CC2(CC(n3nc(N4CC[C@@H](CN(C)CC(=O)N5CCCC5)CC4(C)C)c(-c4c(Cl)c(Cl)cc5[nH]ncc45)c3C)C2)C1` (single isomer, unassigned) [Example 252a]: more than 5000 nM; `C=CC(=O)N1CC2(CC(n3nc(N4CCC(N(CC)C5COC5)CC4(C)C)c(-c4c(Cl)c(C)cc5[nH]ncc45)c3C)C2)C1` (single isomer, unassigned) [Example 48a, 1-(6-(4-(5-chloro-6-methyl-1H-indazol-4-yl)-3-(4-(ethyl(oxetan-3-yl)amino)-2,2-dimethylpiperidin-1-yl)-5-methyl-1H-pyrazol-1-yl)-2-azaspiro[3.3]heptan-2-yl)prop-2-en-1-one]: 296 nM. Next, `C=CC(=O)N1CC2(CC(n3nc(N4CCN(c5nccn5C)C[C@]4(C)CC)c(-c4c(Cl)c(C)cc5[nH]ncc45)c3C)C2)C1` (single isomer, unassigned) [Example 194a]: 19 nM; `C=CC(=O)N1CC2(CC(n3nc(N4CCN(C5CCOCC5)CC4(C)C)c(-c4c(Cl)c(Cl)cc5[nH]ncc45)c3C)C2)C1` (single isomer, unassigned) [Example 140a, 1-(6-(4-(5,6-dichloro-1H-indazol-4-yl)-3-(2,2-dimethyl-4-(tetrahydro-2H-pyran-4-yl)piperazin-1-yl)-5-methyl-1H-pyrazol-1-yl)-2-azaspiro[3.3]heptan-2-yl)prop-2-en-1-one]: 971 nM; `C=CC(=O)N1CC2(CC(n3nc(N4CC[C@@H](CN5CCN(C6COC6)C[C@@H]5COC)CC4(C)C)c(-c4c(Cl)c(Cl)cc5[nH]ncc45)c3C)C2)C1` (single isomer, unassigned) [Example 320b]: less than 5 nM. In the case of `C=CC(=O)N1CC2(CC(n3nc(N4CC[C@@H](CN5CCCN(C(C)=O)CC5)CC4(C)C)c(-c4c(Cl)c(Cl)cc5[nH]ncc45)c3C)C2)C1` (single isomer, unassigned) [Example 315b], the half-inhibitory concentration (IC50) was 7 nM. Then `C=CC(=O)N1CC2(CC(n3nc(N4CCN(C5CCOC5)CC45CCC5)c(-c4c(Cl)c(C)cc5[nH]ncc45)c3C)C2)C1` (single isomer, unassigned) [Example 132a, 1-(6-(4-(5-chloro-6-methyl-1H-indazol-4-yl)-5-methyl-3-(8-(tetrahydrofuran-3-yl)-5,8-diazaspiro[3.5]nonan-5-yl)-1H-pyrazol-1-yl)-2-azaspiro[3.3]heptan-2-yl)prop-2-en-1-one], with 697 nM; and `C=CC(=O)N1CC2(CC(n3nc(N4CC[C@@H](N(C)C(C)=O)CC4(C)C)c(-c4c(Cl)c(C)cc5[nH]ncc45)c3C)C2)C1` (single isomer, unassigned) [Example 69a], with 4400 nM. Then `C=CC(=O)N1CC2(CC(n3nc(N4CC[C@@H](CN5CCOC[C@@H]5CO)CC4(C)C)c(-c4c(Cl)c(Cl)cc5[nH]ncc45)c3C)C2)C1` (single isomer, unassigned) [Example 303b], with 5 nM. For the molecule `C=CC(=O)N1CC2(CC(n3nc(N4CCN(C(C)(C)C(=O)OC)CC45CCC5)c(-c4c(Cl)c(C)cc5[nH]ncc45)c3C)C2)C1` (single isomer, unassigned) [Example 180a, methyl 2-(5-(1-(2-acryloyl-2-azaspiro[3.3]heptan-6-yl)-4-(5-chloro-6-methyl-1H-indazol-4-yl)-5-methyl-1H-pyrazol-3-yl)-5,8-diazaspiro[3.5]nonan-8-yl)-2-methylpropanoate], the IC50 is more than 5000 nM.

`C=CC(=O)N1CC2(CC(n3nc(N4CCN(C5COC5)CC45CCC5)c(-c4c(C)c(Cl)cc5[nH]ncc45)c3C)C2)C1` (single isomer, unassigned) [Example 79b, 1-(6-(4-(6-chloro-5-methyl-1H-indazol-4-yl)-5-methyl-3-(8-(oxetan-3-yl)-5,8-diazaspiro[3.5]nonan-5-yl)-1H-pyrazol-1-yl)-2-azaspiro[3.3]heptan-2-yl)prop-2-en-1-one]: the IC50 was determined as 18 nM. Then `C=CC(=O)N1CC2(CC(n3nc(N4CC[C@@H](CN5CCN(C(=O)CO)CC5)CC4(C)C)c(-c4c(Cl)c(Cl)cc5[nH]ncc45)c3C)C2)C1` (single isomer, unassigned) [Example 310a], with 2900 nM.

On to `C=CC(=O)N1CC2(CC(n3nc(N4CCN(C5COC5)CC4(C)C)c(-c4c(Cl)c(Cl)cc5[nH]ncc45)c3C)C2)C1` (single isomer, unassigned) [Example 73a, 1-(6-(4-(5,6-dichloro-1H-indazol-4-yl)-3-(2,2-dimethyl-4-(oxetan-3-yl)piperazin-1-yl)-5-methyl-1H-pyrazol-1-yl)-2-azaspiro[3.3]heptan-2-yl)prop-2-en-1-one], for which the half-inhibitory concentration (IC50) was more than 5000 nM. Then `C=CC(=O)N1CC2(CC(n3nc(N4CCN(C(=O)OCCOC)CC45CCC5)c(-c4c(Cl)c(C)cc5[nH]ncc45)c3C)C2)C1` (single isomer, unassigned) [Example 122a, 2-methoxyethyl 5-(1-(2-acryloyl-2-azaspiro[3.3]heptan-6-yl)-4-(5-chloro-6-methyl-1H-indazol-4-yl)-5-methyl-1H-pyrazol-3-yl)-5,8-diazaspiro[3.5]nonane-8-carboxylate], with more than 5000 nM; and `C=CC(=O)N1CC2(CC(n3nc(N4CCN(C5COC5)C[C@]4(C)CC)c(-c4c(Cl)c(C)cc5[nH]ncc45)c3C)C2)C1` (single isomer, unassigned) [Example 133a], with 1600 nM; and `C=CC(=O)N1CC2(CC(n3nc(N4CCN(C[C@@H]5COCCO5)C[C@]4(C)CC)c(-c4c(Cl)c(Cl)cc5[nH]ncc45)c3C)C2)C1` (single isomer, unassigned) [Example 89b], with less than 5 nM.

Turning to `C=CC(=O)N1CC2(CC(n3nc(N4CCC(O)(CN5CCOCC5)CC4(C)C)c(-c4c(Cl)c(Cl)cc5[nH]ncc45)c3C)C2)C1` (single isomer, unassigned) [Example 238a, 1-(6-(4-(5,6-dichloro-1H-indazol-4-yl)-3-(4-hydroxy-2,2-dimethyl-4-(morpholinomethyl)piperidin-1-yl)-5-methyl-1H-pyrazol-1-yl)-2-azaspiro[3.3]heptan-2-yl)prop-2-en-1-one], the half-maximal inhibitory concentration (IC50) turned out to be 36 nM. Next, `C=CC(=O)N1CC2(CC(n3nc(N4CCN(C[C@@H]5COCCO5)C[C@]4(C)CC)c(-c4c(Cl)c(C)cc5c4cnn5C)c3C)C2)C1` (single isomer, unassigned) [Example 109a]: 334 nM. Then `C=CC(=O)N1CC2(CC(n3nc(N4CCN(C5COCCOC5)C[C@]4(C)CC)c(-c4c(Cl)c(C)cc5[nH]ncc45)c3C)C2)C1` (single isomer, unassigned) [Example 159b], with 9 nM; and `C=CC(=O)N1CC2(CC(n3nc(N4CC[C@@H](CN5CCN6CCOC[C@H]6C5)CC4(C)C)c(-c4c(Cl)c(Cl)cc5[nH]ncc45)c3C)C2)C1` (single isomer, unassigned) [Example 288a], with 4900 nM. Next, `C=CC(=O)N1CC2(CC(n3nc(N4CCc5nn(C)c(=O)cc5C4)c(-c4c(Cl)c(C)cc5[nH]ncc45)c3C)C2)C1` (single isomer, unassigned) [Example 40a, 6-(1-(2-acryloyl-2-azaspiro[3.3]heptan-6-yl)-4-(5-chloro-6-methyl-1H-indazol-4-yl)-5-methyl-1H-pyrazol-3-yl)-2-methyl-5,6,7,8-tetrahydropyrido[4,3-c]pyridazin-3(2H)-one]: more than 50000 nM; `C=CC(=O)N1CC2(CC(n3nc(N4CC(c5cccnc5)C4)c(-c4c(Cl)c(C)cc5[nH]ncc45)c3C)C2)C1` (single isomer, unassigned) [Example 37b, 1-(6-(4-(5-chloro-6-methyl-1H-indazol-4-yl)-5-methyl-3-(3-(pyridin-3-yl)azetidin-1-yl)-1H-pyrazol-1-yl)-2-azaspiro[3.3]heptan-2-yl)prop-2-en-1-one]: 2100 nM; `C=CC(=O)N1CC2(CC(n3nc(N4CCC(CN5CCS(=O)(=O)CC5)CC4(C)C)c(-c4c(Cl)c(Cl)cc5[nH]ncc45)c3C)C2)C1` (single isomer, unassigned) [Example 235a, 1-(6-(4-(5,6-dichloro-1H-indazol-4-yl)-3-(4-((1,1-dioxidothiomorpholino)methyl)-2,2-dimethylpiperidin-1-yl)-5-methyl-1H-pyrazol-1-yl)-2-azaspiro[3.3]heptan-2-yl)prop-2-en-1-one]: 932 nM.

As for `C=CC(=O)N1CC2(CC(n3nc(N4CCN(C[C@@H]5COCCO5)C[C@]4(C)COC)c(-c4c(Cl)c(Cl)cc5[nH]ncc45)c3C)C2)C1` (single isomer, unassigned) [Example 182b], the IC50 was 8 nM.
